Source: US12077483B2, “Modified amine lipids” (Intellia Therapeutics, Inc., priority 2018, dated 2024)

Columns and labels:
[1] = RNA encapsulation efficiency of LNP (Ribogreen fluorescence assay); format: physicochemical; conditions: LNP with the compound as amine lipid
Method in brief: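 LNP samples diluted in 1× TE with or without 0.2% Triton-X 100 for total or free RNA, stained ~10 min at room temperature in the dark with RiboGreen; fluorescence ex 488/em 525 nm against RNA standard curves. Encapsulation efficiency = (Total RNA−Free RNA)/Total RNA.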

mouse TTR = experiment: Serum TTR ELISA in mice after LNP delivery; format: in vivo; conditions: mouse serum, relative to TSS control of same experiment
Method in brief: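 Female CD-1 mice received LNP at 0.1 mpk unless noted; serum was collected 6 or 7 days later. Total serum TTR was measured by mouse prealbumin ELISA at 10,000- and/or 2,500-fold dilution and is expressed as a percentage of vehicle control.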

[2] = pKa of amine lipid by TNS fluorescence; format: physicochemical; conditions: probe TNS (6-(p-toluidino)-2-naphthalenesulfonic acid sodium salt), unformulated amine lipid in ethanol, sodium phosphate buffers -9.0
Method in brief: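 Unformulated amine lipid, about 100 μM final, in 0.1 M sodium phosphate buffers spanning pH 4.5–9.0 with TNS. Fluorescence read at ex 321/em 448 nm; normalized data fitted sigmoidally to give pKa.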

[3] = LNP average particle size and polydispersity by dynamic light scattering; format: physicochemical; conditions: LNP with the compound as amine lipid
Method in brief: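 LNPs were diluted in PBS to a count rate of about 200-400 kcps and measured by DLS on a Zetasizer. Size is the intensity-weighted Z-average diameter, reported with number-average diameter, and the polydispersity index describes the spread of sizes around the mean.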

[4] = Expt. 2, composition ratio (mol %) 50/9/39.5/3 for Cmpnd 49, 50/9/39.5/1.5 for the others
[5] = Expt. 8, composition ratio (mol %) 50/9/38/3 for Cmpnd 49, 50/10/38.5/1.5 for the others
[6] = Expt. 7, composition ratio (mol %) 50/9/38/3 for Cmpnd 49, 50/10/38.5/1.5 for the others
[7] = Expt. 9, composition ratio (mol %) 50/9/38/3 for Cmpnd 49, 50/10/38.5/1.5 for the others
[8] = Expt. 6, composition ratio (mol %) 50/9/38/3 for Cmpnd 49, 50/10/38.5/1.5 for the others
[9] = Expt. 1, composition ratio (mol %) 50/9/38/3 for Cmpnd 49, 50/10/38.5/1.5 for the others
[10] = Expt. 10, composition ratio (mol %) 50/9/38/3 for Cmpnd 49, 50/10/38.5/1.5 for the others

CCCCC/C=C\C/C=C\CCCCCCCC(=O)OCC(COC(=O)CCCCCCC/C=C\C/C=C\CCCCC)OC(=O)CCC(CCCCCC)OC(=O)NCC1CCCN1C (stereo not shown) [Compound 44, 2-((4-((((1-methylpyrrolidin-2-yl)methyl)carbamoyl)oxy)decanoyl)oxy)propane-1,3-diyl (9Z,9′Z,12Z,12′Z)-bis(octadeca-9,12-dienoate)]
Encapsulation (%) [1, 4]: 99%
Encapsulation (%) [1, 5]: 99%
Serum TTR % TSS (mouse TTR; dose 0.03 mpk): 119.97 % TSS
Serum TTR % TSS (mouse TTR; dose 0.1 mpk): 78.79 % TSS
pKa [2]: 6.45
Num Ave Size (nm) [3, 4]: 78.34 nm
PDI [3, 4]: 0.034
Z-Ave Size (nm) [3, 4]: 97.65 nm
Num Ave Size (nm) [3, 5]: 85.76 nm
PDI [3, 5]: 0.034
Z-Ave Size (nm) [3, 5]: 104.3 nm

CCCCC/C=C\C/C=C\CCCCCCCC(=O)OCC(COC(=O)CCCCCCC/C=C\C/C=C\CCCCC)OC(=O)CCC(CCCCCCC)OC(=O)NCC1CCCN1C (stereo not shown) [Compound 74, 2-((4-((((1-methylpyrrolidin-2-yl)methyl)carbamoyl)oxy)undecanoyl)oxy)propane-1,3-diyl (9Z,9′Z,12Z,12′Z)-bis(octadeca-9,12-dienoate)]
Encapsulation (%) [1, 5]: 99%
Serum TTR % TSS (mouse TTR; dose 0.03 mpk): 100.54 % TSS
Serum TTR % TSS (mouse TTR; dose 0.1 mpk): 110.06 % TSS
pKa [2]: 6.44
Num Ave Size (nm) [3, 5]: 74.58 nm
PDI [3, 5]: 0.024
Z-Ave Size (nm) [3, 5]: 92.14 nm

CCCCC/C=C\C/C=C\CCCCCCCC(=O)OCC(COC(=O)CCCCCCC/C=C\C/C=C\CCCCC)OC(=O)CCC(CCCCCCC)OC(=O)OCCCN1CCCC1 (stereo not shown) [Compound 75, 2-((4-(((3-(pyrrolidin-1-yl)propoxy)carbonyl)oxy)undecanoyl)oxy)propane-1,3-diyl (9Z,9′Z,12Z,12′Z)-bis(octadeca-9,12-dienoate)]
Encapsulation (%) [1, 6]: 98%
Serum TTR % TSS (mouse TTR; dose 0.03 mpk): 45.098 % TSS
Serum TTR % TSS (mouse TTR; dose 0.1 mpk): 11.996 % TSS
pKa [2]: 6.17
Num Ave Size (nm) [3, 6]: 73.46 nm
PDI [3, 6]: 0.02
Z-Ave Size (nm) [3, 6]: 89.78 nm

CCCCC/C=C\C/C=C\CCCCCCCC(=O)OCC(COC(=O)CCCCCCC/C=C\C/C=C\CCCCC)OC(=O)CC[C@H](CCCCCC)OC(=O)NCCN1CCCC1 [Compound 89, 2-(((S)-4-(((2-(pyrrolidin-1-yl)ethyl)carbamoyl)oxy)decanoyl)oxy)propane-1,3-diyl (9Z,9′Z,12Z,12′Z)-bis(octadeca-9,12-dienoate)]
Encapsulation (%) [1, 7]: 98%
Serum TTR % TSS (mouse TTR; dose 0.03 mpk): 48.65 % TSS
pKa [2]: 6.76
Num Ave Size (nm) [3, 7]: 73 nm
PDI [3, 7]: 0.01
Z-Ave Size (nm) [3, 7]: 88 nm

CCCCC/C=C\C/C=C\CCCCCCCC(=O)OCC(COC(=O)CCCCCCC/C=C\C/C=C\CCCCC)OC(=O)CCC(CC(CC)CC)OC(=O)NCCN(C)CC (stereo not shown) [Compound 103, 2-((6-ethyl-4-(((2-(ethyl(methyl)amino)ethyl)carbamoyl)oxy)octanoyl)oxy)propane-1,3-diyl (9Z,9′Z,12Z,12′Z)-bis(octadeca-9,12-dienoate)]
Encapsulation (%) [1, 8]: 91%
Serum TTR % TSS (mouse TTR; dose 0.03 mpk): 72.23 % TSS
Serum TTR % TSS (mouse TTR; dose 0.1 mpk): 29.05 % TSS
pKa [2]: 6.09
Num Ave Size (nm) [3, 8]: 82 nm
PDI [3, 8]: 0.01
Z-Ave Size (nm) [3, 8]: 102.00 nm

CCCCC/C=C\C/C=C\CCCCCCCC(=O)OCC(COC(=O)CCCCCCC/C=C\C/C=C\CCCCC)COC(=O)CC(CCCCCCCC)OC(=O)NCCN(C)CC (stereo not shown) [Compound 53, 2-(11-methyl-5-octyl-3,7-dioxo-2,6-dioxa-8,11-diazatridecyl)propane-1,3-diyl (9Z,9′Z,12Z,12′Z)-bis(octadeca-9,12-dienoate)]
Encapsulation (%) [1, 9]: 99%
Serum TTR % TSS (mouse TTR; dose 0.1 mpk): 13.97 % TSS
pKa [2]: 6.29
Num Ave Size (nm) [3, 9]: 75.76 nm
PDI [3, 9]: 0.05
Z-Ave Size (nm) [3, 9]: 92.99 nm

CCCCC/C=C\C/C=C\CCCCCCCC(=O)OCC(COC(=O)CCCCCCC/C=C\C/C=C\CCCCC)OC(=O)CCC(CCCCC)OC(=O)OCCCN1CCCC1 (stereo not shown) [Compound 71, 2-((4-(((3-(pyrrolidin-1-yl)propoxy)carbonyl)oxy)nonanoyl)oxy)propane-1,3-diyl (9Z,9′Z,12Z,12′Z)-bis(octadeca-9,12-dienoate)]
Encapsulation (%) [1, 6]: 97%
Serum TTR % TSS (mouse TTR; dose 0.03 mpk): 47.425 % TSS
Serum TTR % TSS (mouse TTR; dose 0.1 mpk): 15.055 % TSS
pKa [2]: 6.28
Num Ave Size (nm) [3, 6]: 86.63 nm
PDI [3, 6]: 0.035
Z-Ave Size (nm) [3, 6]: 104.5 nm

CCCCC/C=C\C/C=C\CCCCCCCC(=O)OCC(COC(=O)CCCCCCC/C=C\C/C=C\CCCCC)OC(=O)CCC(CCC(C)CCCC(C)C)OC(=O)NCCN1CCCC1 (stereo not shown) [Compound 105, 2-((7,11-dimethyl-4-(((2-(pyrrolidin-1l-yl)ethyl)carbamoyl)oxy)dodecanoyl)oxy)propane-1,3-diyl (9Z,9′Z,12Z,12′Z)-bis(octadeca-9,12-dienoate)]
Encapsulation (%) [1, 7]: 99%
Serum TTR % TSS (mouse TTR; dose 0.03 mpk): 47.97 % TSS
pKa [2]: 6.53
Num Ave Size (nm) [3, 7]: 64 nm
PDI [3, 7]: 0.02
Z-Ave Size (nm) [3, 7]: 80 nm

CCCCC/C=C\C/C=C\CCCCCCCC(=O)OCC(COC(=O)CCCCCCC/C=C\C/C=C\CCCCC)OC(=O)CCC(CCCCCCCCCC)OC(=O)OCCCN1CCCC1 (stereo not shown) [Compound 66, 2-((4-(((3-(pyrrolidin-1-yl)propoxy)carbonyl)oxy)tetradecanoyl)oxy)propane-1,3-diyl (9Z,9′Z,12Z,12′Z)-bis(octadeca-9,12-dienoate)]
Encapsulation (%) [1, 6]: 98%
Serum TTR % TSS (mouse TTR; dose 0.03 mpk): 54.682 % TSS
Serum TTR % TSS (mouse TTR; dose 0.1 mpk): 19.674 % TSS
pKa [2]: 6.15
Num Ave Size (nm) [3, 6]: 65.07 nm
PDI [3, 6]: 0.035
Z-Ave Size (nm) [3, 6]: 79.79 nm

CCCCCCCCCCCOC(=O)CCCCCCCC(=O)OCC(COC(=O)CCCCCCCC(=O)OCCCCCCCCCCC)OC(=O)CC(CCCCCCCC)OC(=O)NCCN(C)CC (stereo not shown) [Compound 59, O′1,O1-(2-((3-(((2-(ethyl(methyl)amino)ethyl)carbamoyl)oxy)undecanoyl)oxy)propane-1,3-diyl) 9,9′-diundecyl di(nonanedioate)]
Encapsulation (%) [1, 9]: 97%
Serum TTR % TSS (mouse TTR; dose 0.1 mpk): 80.70 % TSS
pKa [2]: 6.34
Num Ave Size (nm) [3, 9]: 88.36 nm
PDI [3, 9]: 0.03
Z-Ave Size (nm) [3, 9]: 109.90 nm

CCCCC/C=C\C/C=C\CCCCCCCC(=O)OCC(COC(=O)CCCCCCC/C=C\C/C=C\CCCCC)OC(=O)CCCC(CCCCCCCC)OC(=O)NCCN(C)CC (stereo not shown) [Compound 97, 2-((5-(((2-(ethyl(methyl)amino)ethyl)carbamoyl)oxy)tridecanoyl)oxy)propane-1,3-diyl (9Z,9′Z,12Z,12′Z)-bis(octadeca-9,12-dienoate)]
Encapsulation (%) [1, 10]: 98%
Serum TTR % TSS (mouse TTR; dose 0.03 mpk): 79% TSS
pKa [2]: 6.38
Num Ave Size (nm) [3, 10]: 75 nm
PDI [3, 10]: 0.03
Z-Ave Size (nm) [3, 10]: 92 nm

CCCCC/C=C\C/C=C\CCCCCCCC(=O)OCC(COC(=O)CCCCCCC/C=C\C/C=C\CCCCC)OC(=O)CCC(CC/C=C\CCCCC)OC(=O)NCCN(C)CC (stereo not shown) [Compound 107, 2-(((Z)-4-(((2-(ethyl(methyl)amino)ethyl)carbamoyl)oxy)tridec-7-enoyl)oxy)propane-1,3-diyl (9Z,9′Z,12Z,12′Z)-bis(octadeca-9,12-dienoate)]
Encapsulation (%) [1, 7]: 98%
Serum TTR % TSS (mouse TTR; dose 0.03 mpk): 58.53 % TSS
pKa [2]: 6.35
Num Ave Size (nm) [3, 7]: 72 nm
PDI [3, 7]: 0.03
Z-Ave Size (nm) [3, 7]: 89 nm

CCCCC/C=C\C/C=C\CCCCCCCC(=O)OCC(COC(=O)CCCCCCC/C=C\C/C=C\CCCCC)OC(=O)CCC(CCCCCCCC)OC(=O)NCCN1CCC1 (stereo not shown) [Compound 93, 2-((4-(((2-(azetidin-1-yl)ethyl)carbamoyl)oxy)dodecanoyl)oxy)propane-1,3-diyl (9Z,9′Z,12Z,12′Z)-bis(octadeca-9,12-dienoate)]
Encapsulation (%) [1, 10]: 98%
Serum TTR % TSS (mouse TTR; dose 0.03 mpk): 100% TSS
pKa [2]: 6.96
Num Ave Size (nm) [3, 10]: 86 nm
PDI [3, 10]: 0.01
Z-Ave Size (nm) [3, 10]: 103 nm

CCCCC/C=C\C/C=C\CCCCCCCC(=O)OCC(COC(=O)CCCCCCC/C=C\C/C=C\CCCCC)OC(=O)CCC(CCCCCCCC)OC(=O)OC1CCN(C)CC1 (stereo not shown) [Compound 92, 2-((4-((((1-methylpiperidin-4-yl)oxy)carbonyl)oxy)dodecanoyl)oxy)propane-1,3-diyl (9Z,9′Z,12Z,12′Z)-bis(octadeca-9,12-dienoate)]
Encapsulation (%) [1, 10]: 98%
Serum TTR % TSS (mouse TTR; dose 0.03 mpk): 120% TSS
pKa [2]: 5.96
Num Ave Size (nm) [3, 10]: 51 nm
PDI [3, 10]: 0.06
Z-Ave Size (nm) [3, 10]: 67 nm
